According to patent US20230285497A1, “ATOPIC […] WITH KAPPA OPIOID RECEPTOR AGONIST AS ADJUNCT TO TOPICAL CORTICOSTEROID” (Cara Therapeutics, Inc., priority 2022, published 2023):

Assays:
Solubility in water = assay type: physicochemical; conditions: acetate salt
[1] = tested on: subjects with atopic dermatitis; experiment: Phase 2 study, tolerability and Treatment Emergent Adverse Events; assay type: in vivo, human
Description: Oral Difelikefalin 0.25 mg, 0.5 mg, 1.0 mg, or placebo was administered twice daily (BID) in subjects with atopic dermatitis (baseline validated Investigator's Global Assessment scale for AD: vIGA-ADTM≥2 and body surface area [BSA]≤30%) and moderate-to-severe AD-related pruritus (mean baseline Itch Numerical Rating Scale [I-NRS, 0-10 scale] score ≥5.0). The primary and key secondary endpoints were the change from baseline in the weekly mean of the daily I-NRS score at Week 12, and the proportion of subjects achieving at least a 4-point improvement from baseline in I-NRS score at Week 12, respectively.
There were no deaths in the study. Abdominal pain was the most common TEAE leading to study drug discontinuation in the 1.0 mg dose group (6.5%), compared to placebo (1.6%), 0.25 mg (0%) and 0.5 mg (0%) dose groups.

For `CC(=O)O.CC(C)C[C@@H](NC(=O)[C@@H](Cc1ccccc1)NC(=O)[C@H](N)Cc1ccccc1)C(=O)N[C@H](CCCCN)C(=O)N1CCC(N)(C(=O)O)CC1` [Difelikefalin acetate, 4-amino-1-(D-phenylalanyl-D-phenylalanyl-D-leucyl-D-lysyl)piperidine-4-carboxylic acid, acetate salt], the solubility in water (Solubility in water) was “soluble in water”.

In the case of `CC(C)C[C@@H](NC(=O)[C@@H](Cc1ccccc1)NC(=O)[C@H](N)Cc1ccccc1)C(=O)N[C@H](CCCCN)C(=O)N1CCC(N)(C(=O)O)CC1` [Difelikefalin], the “abdominal pain TEAE leading to study drug discontinuation” value (shortened to “abdominal pain TEAE leading”) ([1]; 0.25 mg dose group) was 0%, the “abdominal pain TEAE leading” value ([1]; 0.5 mg dose group) was 0% and the “abdominal pain TEAE leading” value ([1]; 1.0 mg dose group) was 6.5%. For the same compound, the “deaths in the study” value ([1]; in vivo) was “no deaths”, the “severity of the majority of reported TEAEs” value ([1]; in vivo) was “mild or moderate” and the overall tolerability ([1]; oral, twice daily, 12-week Treatment Period) was “generally well-tolerated”. For the same compound, the “most common Treatment Emergent Adverse Events (TEAEs)” value ([1]; ≥5% in any dose group) was “abdominal pain, nausea, dry mouth, headache, dizziness and hypertension”.
